Experimental data reported in ChEMBL document CHEMBL5532684, “Total Synthesis and Antibacterial Activity of Marine Tris-indole Alkaloid Tulongicin A” (2024).
In brackets after ≈: the same amount, converted by molar mass.

What was measured:
Assay type in all cases: functional
Staphylococcus aureus [1] = assay: Bactericidal activity against methicillin resistant Staphylococcus aureus clinical isolate 5 incubated overnight by CLSI protocol based assay; settings: read-out: MBC>99.9
Staphylococcus aureus [2] = assay: Bactericidal activity against methicillin resistant Staphylococcus aureus clinical isolate 1 incubated overnight by CLSI protocol based assay; settings: read-out: MBC>99.9
Staphylococcus aureus [3] = assay: Antibacterial activity against methicillin susceptible Staphylococcus aureus clinical isolate 2 assessed as inhibition of bacterial growth incubated overnight by CLSI protocol based assay; settings: read-out: MIC100
Escherichia coli [4] = assay: Antibacterial activity against Escherichia coli ATCC 25922 assessed as inhibition of bacterial growth incubated overnight by CLSI protocol based assay; settings: read-out: MIC100
Staphylococcus aureus [5] = assay: Antibacterial activity against Staphylococcus aureus ATCC 29213 assessed as inhibition of bacterial growth incubated overnight by CLSI protocol based assay; settings: read-out: MIC100
Staphylococcus aureus [6] = assay: Bactericidal activity against Staphylococcus aureus ATCC 29213 incubated overnight by CLSI protocol based assay; settings: read-out: MBC>99.9
Staphylococcus aureus [7] = assay: Antibacterial activity against methicillin susceptible Staphylococcus aureus clinical isolate 3 assessed as inhibition of bacterial growth incubated overnight by CLSI protocol based assay; settings: read-out: MIC100
Staphylococcus aureus [8] = assay: Antibacterial activity against methicillin susceptible Staphylococcus aureus clinical isolate 1 assessed as inhibition of bacterial growth incubated overnight by CLSI protocol based assay; settings: read-out: MIC100
Escherichia coli [9] = assay: Bactericidal activity against Escherichia coli ATCC 25922 incubated overnight by CLSI protocol based assay; settings: read-out: MBC>99.9
Staphylococcus aureus [10] = assay: Bactericidal activity against methicillin susceptible Staphylococcus aureus clinical isolate 2 incubated overnight by CLSI protocol based assay; settings: read-out: MBC>99.9
Staphylococcus aureus [11] = assay: Bactericidal activity against methicillin susceptible Staphylococcus aureus clinical isolate 4 incubated overnight by CLSI protocol based assay; settings: read-out: MBC>99.9
Staphylococcus aureus [12] = assay: Bactericidal activity against methicillin resistant Staphylococcus aureus clinical isolate 3 incubated overnight by CLSI protocol based assay; settings: read-out: MBC>99.9
Staphylococcus aureus [13] = assay: Antibacterial activity against methicillin resistant Staphylococcus aureus clinical isolate 5 assessed as inhibition of bacterial growth incubated overnight by CLSI protocol based assay; settings: read-out: MIC100
Pseudomonas aeruginosa [14] = assay: Antibacterial activity against Pseudomonas aeruginosa ATCC 27853 assessed as inhibition of bacterial growth incubated overnight by CLSI protocol based assay; settings: read-out: MIC100
Pseudomonas aeruginosa [15] = assay: Bactericidal activity against Pseudomonas aeruginosa ATCC 27853 incubated overnight by CLSI protocol based assay; settings: read-out: MBC>99.9
Staphylococcus aureus [16] = assay: Bactericidal activity against methicillin resistant Staphylococcus aureus clinical isolate 2 incubated overnight by CLSI protocol based assay; settings: read-out: MBC>99.9
Staphylococcus aureus [17] = assay: Antibacterial activity against methicillin resistant Staphylococcus aureus clinical isolate 3 assessed as inhibition of bacterial growth incubated overnight by CLSI protocol based assay; settings: read-out: MIC100
Staphylococcus aureus [18] = assay: Antibacterial activity against methicillin susceptible Staphylococcus aureus clinical isolate 4 assessed as inhibition of bacterial growth incubated overnight by CLSI protocol based assay; settings: read-out: MIC100
Staphylococcus aureus [19] = assay: Antibacterial activity against methicillin resistant Staphylococcus aureus clinical isolate 2 assessed as inhibition of bacterial growth incubated overnight by CLSI protocol based assay; settings: read-out: MIC100
Staphylococcus aureus [20] = assay: Antibacterial activity against methicillin resistant Staphylococcus aureus clinical isolate 4 assessed as inhibition of bacterial growth incubated overnight by CLSI protocol based assay; settings: read-out: MIC100
Staphylococcus aureus [21] = assay: Antibacterial activity against methicillin resistant Staphylococcus aureus clinical isolate 1 assessed as inhibition of bacterial growth incubated overnight by CLSI protocol based assay; settings: read-out: MIC100
Staphylococcus aureus [22] = assay: Bactericidal activity against methicillin susceptible Staphylococcus aureus clinical isolate 1 incubated overnight by CLSI protocol based assay; settings: read-out: MBC>99.9
Staphylococcus aureus [23] = assay: Bactericidal activity against methicillin susceptible Staphylococcus aureus clinical isolate 3 incubated overnight by CLSI protocol based assay; settings: read-out: MBC>99.9
Staphylococcus aureus [24] = assay: Bactericidal activity against methicillin susceptible Staphylococcus aureus clinical isolate 5 incubated overnight by CLSI protocol based assay; settings: read-out: MBC>99.9
Staphylococcus aureus [25] = assay: Antibacterial activity against methicillin susceptible Staphylococcus aureus clinical isolate 5 assessed as inhibition of bacterial growth incubated overnight by CLSI protocol based assay; settings: read-out: MIC100
Staphylococcus aureus [26] = assay: Bactericidal activity against methicillin resistant Staphylococcus aureus clinical isolate 4 incubated overnight by CLSI protocol based assay; settings: read-out: MBC>99.9
Staphylococcus aureus [27] = assay: Antibacterial activity against Staphylococcus aureus assessed as inhibition of bacterial growth

O=C(C1=NC[C@H](c2c[nH]c3cc(Br)ccc23)N1)c1c[nH]c2cc(Br)ccc12 (racemic)
MBC (Staphylococcus aureus [1]): 64 µg/mL (≈ 132 µM)
MBC (Staphylococcus aureus [2]): > 128 µg/mL
MIC (Staphylococcus aureus [3]): 2 µg/mL (≈ 4.11 µM)
MIC (Escherichia coli [4]): > 128 µg/mL
MIC (Staphylococcus aureus [5]): 2 µg/mL (≈ 4.11 µM)
MBC (Staphylococcus aureus [6]): 8 µg/mL (≈ 16.5 µM)
MIC (Staphylococcus aureus [7]): 2 µg/mL (≈ 4.11 µM)
MIC (Staphylococcus aureus [8]): 2 µg/mL (≈ 4.11 µM)
MBC (Escherichia coli [9]): > 128 µg/mL
MBC (Staphylococcus aureus [10]): > 128 µg/mL
MBC (Staphylococcus aureus [11]): > 128 µg/mL
MBC (Staphylococcus aureus [12]): 4 µg/mL (≈ 8.23 µM)
MIC (Staphylococcus aureus [13]): 2 µg/mL (≈ 4.11 µM)
MIC (Pseudomonas aeruginosa [14]): > 128 µg/mL
MBC (Pseudomonas aeruginosa [15]): > 128 µg/mL
MBC (Staphylococcus aureus [16]): 16 µg/mL (≈ 32.9 µM)
MIC (Staphylococcus aureus [17]): 2 µg/mL (≈ 4.11 µM)
MIC (Staphylococcus aureus [18]): 2 µg/mL (≈ 4.11 µM)
MIC (Staphylococcus aureus [19]): 2 µg/mL (≈ 4.11 µM)
MIC (Staphylococcus aureus [20]): 2 µg/mL (≈ 4.11 µM)
MIC (Staphylococcus aureus [21]): 2 µg/mL (≈ 4.11 µM)
MBC (Staphylococcus aureus [22]): 32 µg/mL (≈ 65.8 µM)
MBC (Staphylococcus aureus [23]): > 128 µg/mL
MBC (Staphylococcus aureus [24]): 128 µg/mL (≈ 263 µM)
MIC (Staphylococcus aureus [25]): 2 µg/mL (≈ 4.11 µM)

Brc1ccc2c(C(C3=NC[C@H](c4c[nH]c5cc(Br)ccc45)N3)c3c[nH]c4cc(Br)ccc34)c[nH]c2c1
MBC (Staphylococcus aureus [26]): 16 µg/mL (≈ 24 µM)
MBC (Staphylococcus aureus [1]): 2 µg/mL (≈ 3 µM)
MBC (Staphylococcus aureus [2]): 128 µg/mL (≈ 192 µM)
MIC (Staphylococcus aureus [3]): 2 µg/mL (≈ 3 µM)
MIC (Escherichia coli [4]): 16 µg/mL (≈ 24 µM)
MIC (Staphylococcus aureus [5]): 2 µg/mL (≈ 3 µM)
MBC (Staphylococcus aureus [6]): 4 µg/mL (≈ 6 µM)
MIC (Staphylococcus aureus [7]): 2 µg/mL (≈ 3 µM)
MIC (Staphylococcus aureus [8]): 1 µg/mL (≈ 1.5 µM)
MBC (Escherichia coli [9]): 32 µg/mL (≈ 48 µM)
MBC (Staphylococcus aureus [10]): 2 µg/mL (≈ 3 µM)
MBC (Staphylococcus aureus [11]): 128 µg/mL (≈ 192 µM)
MBC (Staphylococcus aureus [12]): 2 µg/mL (≈ 3 µM)
MIC (Staphylococcus aureus [13]): 1 µg/mL (≈ 1.5 µM)
MIC (Pseudomonas aeruginosa [14]): > 128 µg/mL
MBC (Pseudomonas aeruginosa [15]): > 128 µg/mL
MBC (Staphylococcus aureus [16]): 16 µg/mL (≈ 24 µM)
MIC (Staphylococcus aureus [17]): 2 µg/mL (≈ 3 µM)
MIC (Staphylococcus aureus [18]): 2 µg/mL (≈ 3 µM)
MIC (Staphylococcus aureus [19]): 1 µg/mL (≈ 1.5 µM)
MIC (Staphylococcus aureus [20]): 2 µg/mL (≈ 3 µM)
MIC (Staphylococcus aureus [21]): 2 µg/mL (≈ 3 µM)
MBC (Staphylococcus aureus [22]): 16 µg/mL (≈ 24 µM)
MIC (Staphylococcus aureus [27]): 1 µg/mL (≈ 1.5 µM)
MBC (Staphylococcus aureus [23]): 16 µg/mL (≈ 24 µM)
MBC (Staphylococcus aureus [24]): 64 µg/mL (≈ 96.1 µM)
MIC (Staphylococcus aureus [25]): 2 µg/mL (≈ 3 µM)
